Patent US9149475B2, “Protein kinase C inhibitors and uses thereof” (Rigel Pharmaceuticals, Inc., priority 2009, dated 2015)

System: Human primary T cells
Assay: IL-2 ELISA, human primary T cell, anti-CD3+CD28+ (whole cell assay)
Format: cell-based
Details: Homo sapiens, T-cell, 24 h, human primary T cells stimulated with anti-CD3 + anti-CD28, 24 hours
Description: (§1) Human primary T cells were prepared as follows. Whole blood was obtained from a healthy volunteer, mixed 1:1 with PBS, layered on to Ficoll Hypaque (Amersham Pharmacia Biotech, Piscataway, N.J., Catalog #17-1440-03) in 2:1 blood/PBS:ficoll ratio and centrifuged for 30 minutes at 4° C. at 1750 rpm. The cells at the serum:ficoll interface were recovered and washed twice with 5 volumes of PBS. These freshly isolated human peripheral blood mononuclear cells were cultured in Yssel's medium containing 40 U/mL IL2 in a flask pre-coated with 1 μg/mL αCD3 and 5 μg/mL αCD28 (Anti-Human CD3, BD Pharmingen Catalog #555336, Anti-Human CD28, Beckman Coulter Catalog #IM1376). The cells were stimulated for 3-4 days, then transferred to a fresh flask and maintained in RPMI (RPMI-1640 with L-Glutamine; Mediatech, Inc., Herndon Va., cat. #10-040-CM) with 10% FBS and 40 U/mL IL-2. The primary T-cells were then washed twice with PBS to remove the IL-2.
Human primary T cells (100,000 cells per well) were pre-incubated with or without test compound in Yssel's medium for 1 hr at 37° C. Cells were then stimulated by transferring them to round-bottom 96-well plates pre-coated with 1 μg/ml μCD3 and 5 μg/ml μCD28. For counter assay, cells were instead stimulated by adding 8× stock solutions of PMA and ionomycin in Yssels (for final concentrations of 0.5 ng/ml PMA and 0.1 μM ionomycin, both from Calbiochem). Cells were incubated at 37° C. for 24 hours before 100 μL supernatants were harvested for quantification of IL-2 by ELISA using Human IL-2 Duoset ELISA Kit from R and D Systems, Cat. #DY202E.
as §1, with “Human primary T cell isolation and culture: Human primary” for “Human primary”, “for 30 min at 4°” for “for 30 minutes at 4°”, “at the serum: ficoll interface were” for “at the serum:ficoll interface were”
Primary T cell stimulation and IL2 ELISA: Human primary T cells (100,000 cells per well) were pre-incubated with or without test compound in Yssel's medium for 1 hr at 37° C. Cells were then stimulated by transferring them to round-bottom 96-well plates pre-coated with 1 μg/ml αCD3 and 5 μg/ml αCD28. For counter assay, cells were instead stimulated by adding 8× stock solutions of PMA and ionomycin in Yssels (for final concentrations of 0.5 ng/ml PMA and 0.1 μM ionomycin, both from Calbiochem). Cells were incubated at 37° C. for 24 hours before 100 μL supernatants were harvested for quantification of IL-2 by ELISA using Human IL-2 Duoset ELISA Kit from R and D Systems, Cat. #DY202E.

First: CCOc1ccc(Nc2ncc(F)c(NC3CC(C)(C)N(C)C(C)(C)C3)n2)cc1-n1c(C)ccc1C [Compound I-13, N2-(4-ethoxy-3-(2,5-dimethyl-1H-pyrrol-1-yl)phenyl)-5-fluoro-N4-(1,2,2,6,6-pentamethylpiperidin-4-yl)pyrimidine-2,4-diamine]
Second: Cc1ccc(C)n1-c1cc(Nc2ncc(F)c(NC3CC(C)(C)N(C)C(C)(C)C3)n2)ccc1OC(C)C [Compound I-15, N2-(4-isopropyloxy-3-(2,5-dimethyl-1H-pyrrol-1-yl)phenyl)-5-fluoro-N4-(1,2,2,6,6-pentamethylpiperidin-4-yl)pyrimidine-2,4-diamine]
The IC50 of the first is higher: > 1000 nM for the first, 500 to 1000 nM for the second. The second is the more potent here.

Compared with CCOc1ccc(Nc2ncc(F)c(NC3CC(C)(C)NC(C)(C)C3)n2)cc1-n1c(C)ccc1C [Compound I-14, N2-(4-ethoxy-3-(2,5-dimethyl-1H-pyrrol-1-yl)phenyl)-5-fluoro-N4-(2,2,6,6-tetramethylpiperidin-4-yl)pyrimidine-2,4-diamine], Cc1ccc(C)n1-c1cc(Nc2ncc(F)c(NC3CC(C)(C)NC(C)(C)C3)n2)ccc1OC(C)C [Compound I-16, N2-(4-isopropyloxy-3-(2,5-dimethyl-1H-pyrrol-1-yl)phenyl)-5-fluoro-N4-(2,2,6,6-tetramethylpiperidin-4-yl)pyrimidine-2,4-diamine] is higher in IC50: 500 to 1000 nM for the first, > 1000 nM for the second.

Compared with CC1(C)CC(Nc2nc(Nc3cc(F)cc(OCCn4ccnn4)c3)ncc2C#N)CC(C)(C)N1 [Compound I-17, 4-(2,2,6,6-tetramethylpiperidin-4-ylamino)-2-(3-(2-(1H-1,2,3-triazol-1-yl)ethoxy)-5-fluorophenylamino)pyrimidine-5-carbonitrile], CC1(C)CC(Nc2nc(Nc3ccc(OCCn4ccnn4)c(OC(F)F)c3)ncc2F)CC(C)(C)N1 [Compound I-24, N2-(4-(2-(1H-1,2,3-triazol-1-yl)ethoxy)-3-(difluoromethoxy)phenyl)-5-fluoro-N4-(2,2,6,6-tetramethylpiperidin-4-yl)pyrimidine-2,4-diamine] is lower in IC50: > 1000 nM for the first, 500 to 1000 nM for the second. The second is the more potent here.

First: Cc1nnnn1-c1cc(Nc2ncc(C#N)c(NC3CC(C)(C)NC(C)(C)C3)n2)ccc1F [Compound I-18, 4-(2,2,6,6-tetramethylpiperidin-4-ylamino)-2-(4-fluoro-3-(5-methyl-1H-tetrazol-1-yl)phenylamino)pyrimidine-5-carbonitrile]
Second: Cc1nnnn1-c1cc(Nc2ncc(F)c(NC3CC(C)(C)NC(C)(C)C3)n2)ccc1OC(F)(F)F [Compound I-21, 5-fluoro-N2-(3-(5-methyl-1H-tetrazol-1-yl)-4-(trifluoromethoxy)phenyl)-N4-(2,2,6,6-tetramethylpiperidin-4-yl)pyrimidine-2,4-diamine]
The IC50 of the first is higher: 250 to 500 nM for the first, < 250 nM for the second.

First: CC1(C)CC(Nc2nc(Nc3cccc(-n4cncn4)c3)ncc2F)CC(C)(C)N1 [Compound I-19, N2-(3-(1H-1,2,4-triazol-1-yl)phenyl)-5-fluoro-N4-(2,2,6,6-tetramethylpiperidin-4-yl)pyrimidine-2,4-diamine]
Second: CC1(C)CC(Nc2nc(Nc3cccc(-n4cccn4)c3)ncc2F)CC(C)(C)N1 [Compound I-23, N2-(3-(1H-pyrazol-1-yl)phenyl)-5-fluoro-N4-(2,2,6,6-tetramethylpiperidin-4-yl)pyrimidine-2,4-diamine]
The IC50 of the first is lower: 500 to 1000 nM for the first, > 1000 nM for the second. The first is the more potent here.

First: Cc1nnnn1-c1cc(Nc2ncc(F)c(NC3CC(C)(C)N(C)C(C)(C)C3)n2)ccc1OC(F)(F)F [Compound I-20, 5-fluoro-N2-(3-(5-methyl-1H-tetrazol-1-yl)-4-(trifluoromethoxy)phenyl)-N4-(1,2,2,6,6-pentamethylpiperidin-4-yl)pyrimidine-2,4-diamine]
Second: CN1C(C)(C)CC(Nc2nc(Nc3cccc(-n4cccn4)c3)ncc2F)CC1(C)C [Compound I-22, N2-(3-(1H-pyrazol-1-yl)phenyl)-5-fluoro-N4-(1,2,2,6,6-pentamethylpiperidin-4-yl)pyrimidine-2,4-diamine]
The IC50 of the first is lower: < 250 nM for the first, 500 to 1000 nM for the second. The first is the more potent here.
